In patent publication US4416884A, “Piperazinylbenzoheterocyclic compounds” (Otsuka Pharmaceutical Co., Ltd., priority 1978, dated 1983):
Values after ≈ are worked out from the molar mass of the structure shown. Read-outs that look alike come from different tables or passages of the source.

Assays:
[1] = system: Bacillus subtilis PCI 219; assay: antimicrobial activity, serial dilution method on agar plate; format: cell-based
Summary of the method: (§1)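 Two inoculum levels used: 1×10^8 cells/ml (O.D. 660 mμ = 0.07–0.16) and a diluted 1×10^6 cells/ml preparation. Minimum inhibitory concentrations in mcg/ml read from serial dilution on Heart Infusion agar plates.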

[2] = system: Escherichia Coli NIHJ JC-2 (IFO 12734); assay: as above; format: cell-based; settings: Escherichia coli, read-out: Minimum Inhibitory Concentration
Summary of the method: as §1

[3] = system: Escherichia Coli NIHJ; assay: as above; format: cell-based
Summary of the method: as §1

[4] = system: Klebsiella pneumoniae ST-101; assay: as above; format: cell-based
Summary of the method: as §1

[5] = system: Klebsiella pneumoniae; assay: as above; format: cell-based
Summary of the method: as §1

[6] = system: Proteus morganii IID Kono; assay: as above; format: cell-based; settings: Morganella morganii
Summary of the method: as §1

[7] = system: Proteus rettgeri NIH 96; assay: as above; format: cell-based; settings: Providencia rettgeri
Summary of the method: as §1

[8] = system: Proteus vulgaris IID OX-19; assay: as above; format: cell-based; settings: read-out: Minimum Inhibitory Concentration
Summary of the method: as §1

[9] = system: Pseudomonas aeruginosa ATCC 10145; assay: as above; format: cell-based
Summary of the method: as §1

[10] = system: Salmonella typhi 0-901 (NCTC 8393); assay: as above; format: cell-based; settings: Salmonella enterica, read-out: Minimum Inhibitory Concentration
Summary of the method: as §1

[11] = system: Serattia marcescens IFO 12648; assay: as above; format: cell-based
Summary of the method: as §1

[12] = system: Shigella Sonnei EW 33; assay: as above; format: cell-based; settings: read-out: Minimum Inhibitory Concentration
Summary of the method: as §1

[13] = system: Staphylococcus aureus FDA 209 P; assay: as above; format: cell-based
Summary of the method: as §1

[14] = system: Yersinia enterocolitica 0-3; assay: as above; format: cell-based
Summary of the method: as §1

[15] = system: Aeromonas hydrophila IFO 12658; assay: antimicrobial activity on bacteria which cause infectious diseases in fish; format: cell-based
Method: (§2) The antimicrobial activity of the following test compounds on various test organisms listed below was determined by the serial dilution method on agar plate (Heart Infusion agar produced by Difco Co.) (see CHEMOTHERAPY 22, pp. 1126-1128 (1974)), and the minimum inhibitory concentrations (mcg/ml) obtained are shown in Table 1 below.
(§3) A sample of each test organism was prepared so that the population of the organism was 1×10^8 cells/ml (O.D. 660 mμ=0.07 to 0.16) and 1×10^6 cells/ml (which was obtained by diluting the above 1×10^8 cells/ml preparation).
(§4) In the same manner as above, the antimicrobial activity of the following compounds on various test organisms which cause infectious diseases in fish was determined.

[16] = system: Aeromonas hydrophila IFO 12981; assay: as above; format: cell-based
Method: as §2, §3, §4

[17] = system: Aeromonas salmonicida IFO 12659; assay: as above; format: cell-based
Method: as §2, §3, §4

[18] = system: Aeromonas salmonicida IFO 12718; assay: as above; format: cell-based
Method: as §2, §3, §4

[19] = system: Pseudomonas fluorescens IFO 12180; assay: as above; format: cell-based; settings: IFO12180, read-out: Minimum Inhibitory Concentration
Method: as §2, §3, §4

[20] = system: Pseudomonas fluorescens IFO 12568; assay: as above; format: cell-based
Method: as §2, §3, §4

[21] = system: Vibrio anguillarum IFO 12710; assay: as above; format: cell-based
Method: as §2, §3, §4

[22] = system: Vibrio anguillarum IFO 13266; assay: as above; format: cell-based
Method: as §2, §3, §4

[23] = acute toxicity by intravenous administration in mice; settings: mouse, in vivo, i.v., mice not fed for 12 hours
Method: The acute toxicity of the compounds of this invention having the formula (I) was determined by intravenous administration (i.v.) in mice which had not been fed for 12 hours prior to the test. LD50 values (50% lethal dose) obtained are set forth below:
In the same manner as above, LD50 values were determined for all the other test compounds and the LD50 values obtained were at least 500 mg/kg.

[24] = read-out: Minimum Inhibitory Concentration, inoculum 1 × 10^6 cells/ml
[25] = read-out: Minimum Inhibitory Concentration, inoculum 1 × 10^8 cells/ml

O=C(O)c1cn2c3c(c(N4CCNCC4)ccc3c1=O)CCC2 [B]
MIC ([1]; PCI219, read-out: Minimum Inhibitory Concentration, inoculum 1 × 10^6 cells/ml): 12.5 µg/mL (≈ 39.9 µM)
MIC ([1]; PCI219, read-out: Minimum Inhibitory Concentration, inoculum 1 × 10^8 cells/ml): 12.5 µg/mL (≈ 39.9 µM)
MIC [2]: 3.1 µg/mL (≈ 9.89 µM)
MIC [3, 24]: 0.8 µg/mL (≈ 2.55 µM)
MIC [3, 25]: 1.6 µg/mL (≈ 5.11 µM)
MIC ([4]; ST101, read-out: Minimum Inhibitory Concentration, inoculum 1 × 10^6 cells/ml): 1.6 µg/mL (≈ 5.11 µM)
MIC ([4]; ST101, read-out: Minimum Inhibitory Concentration, inoculum 1 × 10^8 cells/ml): 1.6 µg/mL (≈ 5.11 µM)
MIC [5, 24]: 1.6 µg/mL (≈ 5.11 µM)
MIC [5, 25]: 6.3 µg/mL (≈ 20.1 µM)
MIC [6, 24]: 6.3 µg/mL (≈ 20.1 µM)
MIC [6, 25]: 12.5 µg/mL (≈ 39.9 µM)
MIC ([7]; NIH96, read-out: Minimum Inhibitory Concentration, inoculum 1 × 10^6 cells/ml): 1.6 µg/mL (≈ 5.11 µM)
MIC ([7]; NIH96, read-out: Minimum Inhibitory Concentration, inoculum 1 × 10^8 cells/ml): 1.6 µg/mL (≈ 5.11 µM)
MIC ([8]; IIDOX19, inoculum 1 × 10^6 cells/ml): 1.6 µg/mL (≈ 5.11 µM)
MIC ([8]; IIDOX19, inoculum 1 × 10^8 cells/ml): 12.5 µg/mL (≈ 39.9 µM)
MIC ([9]; ATCC10145, read-out: Minimum Inhibitory Concentration, inoculum 1 × 10^6 cells/ml): 6.3 µg/mL (≈ 20.1 µM)
MIC ([9]; ATCC10145, read-out: Minimum Inhibitory Concentration, inoculum 1 × 10^8 cells/ml): 12.5 µg/mL (≈ 39.9 µM)
MIC ([10]; inoculum 1 × 10^6 cells/ml): 0.8 µg/mL (≈ 2.55 µM)
MIC ([10]; inoculum 1 × 10^8 cells/ml): 0.8 µg/mL (≈ 2.55 µM)
MIC [11, 24]: 3.1 µg/mL (≈ 9.89 µM)
MIC [11, 25]: 6.3 µg/mL (≈ 20.1 µM)
MIC ([12]; inoculum 1 × 10^6 cells/ml): 1.6 µg/mL (≈ 5.11 µM)
MIC ([12]; inoculum 1 × 10^8 cells/ml): 1.6 µg/mL (≈ 5.11 µM)
MIC ([13]; FDA209, read-out: Minimum Inhibitory Concentration, inoculum 1 × 10^6 cells/ml): 12.5 µg/mL (≈ 39.9 µM)
MIC ([13]; FDA209, read-out: Minimum Inhibitory Concentration, inoculum 1 × 10^8 cells/ml): 2.5 µg/mL (≈ 7.98 µM)
MIC ([14]; Yersinia enterocolitica, 03, read-out: Minimum Inhibitory Concentration, inoculum 1 × 10^6 cells/ml): 3.1 µg/mL (≈ 9.89 µM)
MIC ([14]; Yersinia enterocolitica, 03, read-out: Minimum Inhibitory Concentration, inoculum 1 × 10^8 cells/ml): 12.5 µg/mL (≈ 39.9 µM)
MIC ([15]; IFO12658, inoculum 10^6, read-out: Minimum Inhibitory Concentration): 0.8 µg/mL (≈ 2.55 µM)
MIC ([15]; IFO12658, inoculum 10^8, read-out: Minimum Inhibitory Concentration): 1.6 µg/mL (≈ 5.11 µM)
MIC ([16]; IFO12981, inoculum 10^6, read-out: Minimum Inhibitory Concentration): 0.4 µg/mL (≈ 1.28 µM)
MIC ([16]; IFO12981, inoculum 10^8, read-out: Minimum Inhibitory Concentration): 0.8 µg/mL (≈ 2.55 µM)
MIC ([17]; IFO12659, inoculum 10^6, read-out: Minimum Inhibitory Concentration): 0.8 µg/mL (≈ 2.55 µM)
MIC ([17]; IFO12659, inoculum 10^8, read-out: Minimum Inhibitory Concentration): 1.6 µg/mL (≈ 5.11 µM)
MIC ([18]; IFO12718, inoculum 10^6, read-out: Minimum Inhibitory Concentration): 0.4 µg/mL (≈ 1.28 µM)
MIC ([18]; IFO12718, inoculum 10^8, read-out: Minimum Inhibitory Concentration): 0.8 µg/mL (≈ 2.55 µM)
MIC [19]: 6.3 µg/mL (≈ 20.1 µM)
MIC ([20]; IFO12568, read-out: Minimum Inhibitory Concentration, inoculum 10^6): 25 µg/mL (≈ 79.8 µM)
MIC ([20]; IFO12568, read-out: Minimum Inhibitory Concentration, inoculum 10^8): 50 µg/mL (≈ 160 µM)
MIC ([21]; IFO12710, read-out: Minimum Inhibitory Concentration, inoculum 10^6): 3.1 µg/mL (≈ 9.89 µM)
MIC ([21]; IFO12710, read-out: Minimum Inhibitory Concentration, inoculum 10^8): 12.5 µg/mL (≈ 39.9 µM)
MIC ([22]; IFO13266, read-out: Minimum Inhibitory Concentration, inoculum 10^6): 0.4 µg/mL (≈ 1.28 µM)
MIC ([22]; IFO13266, read-out: Minimum Inhibitory Concentration, inoculum 10^8): 0.8 µg/mL (≈ 2.55 µM)
LD50 [23]: 1100 mg/kg
